Key:
Format in all cases: in vivo
[1] = system: Triticum aestivum (TRZAS); assay: Post-emergence crop plant compatibility, greenhouse pot test; details: vs untreated controls
Method in brief: (§1)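 Greenhouse pot test; post-emergence foliar spray at one-leaf stage, WP or EC in water + 0.5% additive, 600 l/ha. Visual rating after ~3 wk, % relative to untreated (0–100%).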

[2] = system: Zea mays (ZEAMX); assay: as above; details: vs untreated controls
Method in brief: as §1

[3] = system: Glycine max (GLXMA); assay: as above
Method in brief: as §1

[4] = system: Echinochloa crus-galli (ECHCG); assay: Post-emergence herbicidal action, greenhouse pot test (also comparative test C)
Method in brief: (§2)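 Greenhouse pot plants in sandy loam were sprayed post-emergence at the one-leaf stage (2–3 weeks after sowing) with WP or EC formulations plus 0.5% additive at 600 l/ha water. Activity was rated visually after about 3 weeks versus untreated controls (100% = dead, 0% = like control); rates were 20 g/ha or less, and 5 g/ha or less in the comparative test.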

[5] = system: Setaria viridis (SETVI); assay: as above
Method in brief: as §2

[6] = system: Matricaria inodora (MATIN); assay: as above
Method in brief: as §2

[7] = system: Alopecurus myosuroides (ALOMY); assay: as above; details: rated visually after about 3 weeks vs untreated controls, 100% = plants have died
Method in brief: as §2

[8] = system: Veronica persica (VERPE); assay: Post-emergence herbicidal action, greenhouse pot test
Method in brief: (§3)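 Activity was scored by eye about 3 weeks after treatment against untreated plants, where 100% means dead plants and 0% means no difference. Plants at the one-leaf stage received a foliar spray of WP or EC formulations in water plus 0.5% additive (600 l/ha, up to 20 g/ha). Plants were grown in sandy loam pots in a greenhouse for 2–3 weeks before spraying.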

[9] = system: Abutilon theophrasti (ABUTH); assay: as above; details: rated visually after about 3 weeks vs untreated controls, 100% = plants have died
Method in brief: as §3

[10] = system: Pharbitis purpurea (PHBPU); assay: as above
Method in brief: as §3

[11] = system: Polygonum convolvulus (POLCO); assay: as above
Method in brief: as §3

[12] = system: Viola tricolor (VIOTR); assay: as above
Method in brief: as §3

[13] = system: Stellaria media (STEME); assay: as above
Method in brief: as §3

[14] = system: Amaranthus retroflexus (AMARE); assay: as above; details: rated visually after about 3 weeks vs untreated controls, 100% = plants have died
Method in brief: as §3

[15] = system: Oryza sativa (ORYSA); assay: Post-emergence crop plant compatibility, greenhouse pot test (also comparative test C); details: for Post-emergence action against ORYSA (crop plant compatibility): vs untreated controls
Method in brief: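 Visual damage versus untreated plants (0% = like control, 100% = plants died) was scored about 3 weeks after a post-emergence spray in greenhouse pots. Treatment: one-leaf stage, WP or EC in water at 600 l/ha with 0.5% additive; a/b/c mark different dosages on the same crop.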

[16] = system: Avena fatua (AVEFA); assay: Post-emergence herbicidal action, greenhouse pot test; details: rated visually after about 3 weeks vs untreated controls, 100% = plants have died
Method in brief: as §3

SMILES: COCCOC(=O)C(C)Oc1ccccc1Sc1cc(-n2c(=O)cc(C(F)(F)F)n(C)c2=O)c(F)cc1Cl (racemic) [I.2-1, 2-Methoxyethyl (2RS)-2-[2-({2-chloro-4-fluoro-5-[3-methyl-2,6-dioxo-4-(trifluoromethyl)-3,6-dihydropyrimidin-1(2H)-yl]phenyl}sulfanyl)phenoxy]propanoate]
- Post-emergence action against TRZAS (crop plant compatibility) ([1]; 1.25 g/ha): 20%
- Post-emergence action against TRZAS (crop plant compatibility) ([1]; 5 g/ha): 20%
- Post-emergence action against ZEAMX (crop plant compatibility) ([2]; 1.25 g/ha): 10%
- Post-emergence action against ZEAMX (crop plant compatibility) ([2]; 5 g/ha): 10%
- Post-emergence action against ZEAMX (crop plant compatibility) ([2]; 20 g/ha): 20%
- Post-emergence action against GLXMA in % ([3]; 1.25 g/ha): 0%
- Post-emergence action against GLXMA in % ([3]; 5 g/ha): 10%
- Post-emergence action against GLXMA in % ([3]; 20 g/ha): 20%
- pest or weed control at 20 g/ha ([4]; Echinochloa crus-galli, 504 h, dosage 20 g/ha, read-out: Post-emergence action against ECHCG in %): 100%
- pest or weed control at 20 g/ha ([5]; Setaria viridis, 504 h, 20 g/ha, read-out: Post-emergence action against SETVI): 100%
- pest or weed control at 1.25 g/ha ([5]; Setaria viridis, 504 h, dosage 1.25 g/ha, read-out: Post-emergence action against SETVI in %): 100%
- pest or weed control at 5 g/ha ([5]; Setaria viridis, 504 h, dosage 5 g/ha, read-out: Post-emergence action against SETVI in %): 100%
- pest or weed control at 5 g/ha ([6]; Tripleurospermum inodorum, 504 h, dosage 5 g/ha, read-out: Post-emergence action against MATIN in %): 80%
- pest or weed control at 20 g/ha ([6]; Tripleurospermum inodorum, 504 h, dosage 20 g/ha, read-out: Post-emergence action against MATIN in %): 100%
- pest or weed control at 20 g/ha ([7]; Alopecurus myosuroides, 504 h, 20 g/ha, read-out: Post-emergence action at 20 g/ha against ALOMY in %): 80%
- pest or weed control at 1.25 g/ha ([8]; Veronica persica, 504 h, 1.25 g/ha, read-out: Post-emergence action against VERPE): 90%
- pest or weed control at 5 g/ha ([8]; Veronica persica, 504 h, 5 g/ha, read-out: Post-emergence action against VERPE): 100%
- pest or weed control at 20 g/ha ([8]; Veronica persica, 504 h, 20 g/ha, read-out: Post-emergence action against VERPE): 100%
- pest or weed control at 5 g/ha ([9]; Abutilon theophrasti, 504 h, 5 g/ha, read-out: Post-emergence action at 5 g/ha against ABUTH in %): 100%
- pest or weed control at 20 g/ha ([9]; Abutilon theophrasti, 504 h, 20 g/ha, read-out: Post-emergence action at 20 g/ha against ABUTH in %): 100%
- pest or weed control at 1.25 g/ha ([10]; Ipomoea purpurea, 504 h, dosage 1.25 g/ha, read-out: Post-emergence action against PHBPU in %): 100%
- pest or weed control at 5 g/ha ([10]; Ipomoea purpurea, 504 h, dosage 5 g/ha, read-out: Post-emergence action against PHBPU in %): 100%
- pest or weed control at 20 g/ha ([10]; Ipomoea purpurea, 504 h, dosage 20 g/ha, read-out: Post-emergence action against PHBPU in %): 100%
- pest or weed control at 5 g/ha ([11]; Fallopia convolvulus, 504 h, dosage 5 g/ha, read-out: Post-emergence action against POLCO in %): 80%
- pest or weed control at 20 g/ha ([11]; Fallopia convolvulus, 504 h, dosage 20 g/ha, read-out: Post-emergence action against POLCO in %): 100%
- pest or weed control at 1.25 g/ha ([12]; Viola tricolor, 504 h, 1.25 g/ha, read-out: Post-emergence action against VIOTR): 100%
- pest or weed control at 5 g/ha ([12]; Viola tricolor, 504 h, 5 g/ha, read-out: Post-emergence action against VIOTR): 100%
- pest or weed control at 20 g/ha ([12]; Viola tricolor, 504 h, 20 g/ha, read-out: Post-emergence action against VIOTR): 100%
- Post-emergence action against STEME ([13]; 1.25 g/ha): 80%
- Post-emergence action against STEME ([13]; 5 g/ha): 100%
- Post-emergence action against STEME ([13]; 20 g/ha): 100%
- pest or weed control at 1.25 g/ha ([14]; Amaranthus retroflexus, 504 h, 1.25 g/ha, read-out: Post-emergence action at 1.25 g/ha against AMARE in %): 100%
- pest or weed control at 20 g/ha ([14]; Amaranthus retroflexus, 504 h, 20 g/ha, read-out: Post-emergence action at 20 g/ha against AMARE in %): 100%
- Post-emergence action against ORYSA (crop plant compatibility) ([15]; 1.25 g/ha): 10%
- Post-emergence action against ORYSA (crop plant compatibility) ([15]; 5 g/ha): 10%

SMILES: Cn1c(C(F)(F)F)cc(=O)n(-c2cc(Oc3ccccc3OCC(=O)OCc3ccccn3)c(C#N)cc2F)c1=O [I.9-276]
- Post-emergence action against TRZAS (crop plant compatibility) ([1]; 1.25 g/ha): 0%
- Post-emergence action against ZEAMX (crop plant compatibility) ([2]; 1.25 g/ha): 0%
- Post-emergence action against ZEAMX (crop plant compatibility) ([2]; 5 g/ha): 0%
- Post-emergence action against ZEAMX (crop plant compatibility) ([2]; 20 g/ha): 20%
- Post-emergence action against GLXMA in % ([3]; 1.25 g/ha): 0%
- Post-emergence action against ECHCG in % ([4]; dosage 5 g/ha): 100%
- Post-emergence action against ECHCG in % ([4]; dosage 20 g/ha): 100%
- Post-emergence action against SETVI ([5]; 20 g/ha): 100%
- Post-emergence action against SETVI in % ([5]; dosage 1.25 g/ha): 100%
- Post-emergence action against SETVI in % ([5]; dosage 5 g/ha): 100%
- Post-emergence action against MATIN in % ([6]; dosage 5 g/ha): 100%
- Post-emergence action against MATIN in % ([6]; dosage 20 g/ha): 100%
- Post-emergence action at 5 g/ha against ALOMY in % ([7]; 5 g/ha): 100%
- Post-emergence action at 20 g/ha against ALOMY in % ([7]; 20 g/ha): 100%
- Post-emergence action against VERPE ([8]; 1.25 g/ha): 80%
- Post-emergence action against VERPE ([8]; 5 g/ha): 100%
- Post-emergence action against VERPE ([8]; 20 g/ha): 100%
- Post-emergence action at 1.25 g/ha against ABUTH in % ([9]; 1.25 g/ha): 100%
- Post-emergence action at 5 g/ha against ABUTH in % ([9]; 5 g/ha): 100%
- Post-emergence action at 20 g/ha against ABUTH in % ([9]; 20 g/ha): 100%
- Post-emergence action against PHBPU in % ([10]; dosage 1.25 g/ha): 100%
- Post-emergence action against PHBPU in % ([10]; dosage 5 g/ha): 100%
- Post-emergence action against PHBPU in % ([10]; dosage 20 g/ha): 100%
- Post-emergence action against POLCO in % ([11]; dosage 20 g/ha): 100%
- Post-emergence action against VIOTR ([12]; 1.25 g/ha): 100%
- Post-emergence action against VIOTR ([12]; 5 g/ha): 100%
- Post-emergence action against VIOTR ([12]; 20 g/ha): 100%
- Post-emergence action at 5 g/ha against AVEFA in % ([16]; 5 g/ha): 80%
- Post-emergence action at 20 g/ha against AVEFA in % ([16]; 20 g/ha): 90%
- Post-emergence action at 1.25 g/ha against AMARE in % ([14]; 1.25 g/ha): 100%
- Post-emergence action at 5 g/ha against AMARE in % ([14]; 5 g/ha): 100%
- Post-emergence action at 20 g/ha against AMARE in % ([14]; 20 g/ha): 100%
- Post-emergence action against ORYSA (crop plant compatibility) ([15]; 1.25 g/ha): 0%
- Post-emergence action against ORYSA (crop plant compatibility) ([15]; 5 g/ha): 0%
- Post-emergence action against ORYSA in % ([15]; 20 g/ha, crop plant compatibility): 0%
